Tested on: adults with idiopathic or diabetic gastroparesis
Test: Safety: adverse events, laboratory values, vital signs, Phase 2a
[1] = 5 mg BID (N = 9), Safety Population

Description: Safety was evaluated through assessments of Aes, vital signs, physical examinations, clinical laboratory evaluations (including prolactin), and ECG findings. Additionally, a single, optional PGx blood sample may have been collected at any time during the subject's participation in the study.
Safety variables included Aes, clinical laboratory results (including prolactin), vital signs, ECGs, and physical examination findings.

[2H]c1c([2H])c([2H])c2c([nH]c(=O)n2CCCN2CCC(n3c(=O)[nH]c4cc(Cl)ccc43)CC2)c1[2H] [Deudomperidone, 1-{3-[4-(5-chloro-2-oxo-2,3-dihydro-1H-1,3-benzodiazol-1-yl)piperidin-1yl]propyl}-2,3-dihydro(4,5,6,7-D4)-1H-1,3-benzodiazol-2-one]
TEAEs reported (5 mg BID): 1 TEAE
other TEAE: abdominal pain lower (5 mg BID): 1 subject each
other study drug-related TEAE: abdominal pain lower (5 mg BID): 1 subject each
study drug-related TEAEs reported (5 mg BID): 1 TEAE
subjects with study drug-related TEAEs (5 mg BID): 1 (11.1%) subjects (%)
Study drug-related TEAE Abdominal pain lower, % (5 mg BID (N = 9)): (11.1) %
Study drug-related TEAE Blood creatine phosphokinase increased, % (5 mg BID (N = 9)): (0.0) %
Study drug-related TEAE Cardiac disorders, % (5 mg BID (N = 9)): (0.0) %
Study drug-related TEAE Diarrhoea, % (5 mg BID (N = 9)): (0.0) %
Study drug-related TEAE Ear and labyrinth disorders, % (5 mg BID (N = 9)): (0.0) %
Study drug-related TEAE Electrocardiogram QT prolonged, % (5 mg BID (N = 9)): (0.0) %
Study drug-related TEAE Gastrointestinal disorders, % (5 mg BID (N = 9)): (11.1) %
Study drug-related TEAE Headache, % (5 mg BID (N = 9)): (0.0) %
Study drug-related TEAE Investigations, % (5 mg BID (N = 9)): (0.0) %
Study drug-related TEAE Nausea, % (5 mg BID (N = 9)): (0.0) %
Study drug-related TEAE Nervous system disorders, % (5 mg BID (N = 9)): (0.0) %
Study drug-related TEAE Palpitations, % (5 mg BID (N = 9)): (0.0) %
Study drug-related TEAE Tinnitus, % (5 mg BID (N = 9)): (0.0) %
Subjects with any TEAEs, % (5 mg BID (N = 9)): 11.1%
Subjects with any TEAEs, e (events) (5 mg BID (N = 9)): 1
Subjects with any study drug-related TEAE, % (5 mg BID (N = 9)): 11.1%
Subjects with any study drug-related TEAE, e (events) (5 mg BID (N = 9)): 1
TEAE Abdominal pain lower, % (5 mg BID (N = 9)): (11.1) %
TEAE Arthralgia, % (5 mg BID (N = 9)): (0.0) %
TEAE Back pain, % (5 mg BID (N = 9)): (0.0) %
TEAE Blood creatine phosphokinase increased, % (5 mg BID (N = 9)): (0.0) %
TEAE Cardiac disorders, % (5 mg BID (N = 9)): (0.0) %
TEAE Constipation, % (5 mg BID (N = 9)): (0.0) %
TEAE Decreased appetite, % (5 mg BID (N = 9)): (0.0) %
TEAE Diarrhoea, % (5 mg BID (N = 9)): (0.0) %
TEAE Dyspepsia, % (5 mg BID (N = 9)): (0.0) %
TEAE Ear and labyrinth disorders, % (5 mg BID (N = 9)): (0.0) %
TEAE Electrocardiogram QT prolonged, % (5 mg BID (N = 9)): (0.0) %
TEAE Gastrointestinal disorders, % (5 mg BID (N = 9)): (11.1) %
TEAE Headache, % (5 mg BID (N = 9)): (0.0) %
TEAE Hypoglycaemia, % (5 mg BID (N = 9)): (0.0) %
TEAE Infections and infestations, % (5 mg BID (N = 9)): (0.0) %
TEAE Investigations, % (5 mg BID (N = 9)): (0.0) %
TEAE Metabolism and nutrition disorders, % (5 mg BID (N = 9)): (0.0) %
TEAE Musculoskeletal and connective tissue disorders, % (5 mg BID (N = 9)): (0.0) %
TEAE Nausea, % (5 mg BID (N = 9)): (0.0) %
TEAE Nervous system disorders, % (5 mg BID (N = 9)): (0.0) %
TEAE Palpitations, % (5 mg BID (N = 9)): (0.0) %
TEAE Sinusitis, % (5 mg BID (N = 9)): (0.0) %
TEAE Tinnitus, % (5 mg BID (N = 9)): (0.0) %
TEAE Vomiting, % (5 mg BID (N = 9)): (0.0) %
Any Aes, % of subjects [1]: (11.1) %
Any Aes, n subjects [1]: 1
Any TEAEs by maximum severity: Mild, % of subjects [1]: (11.1) %
Any TEAEs by maximum severity: Mild, n subjects [1]: 1
Any TEAEs by maximum severity: Moderate, % of subjects [1]: (0.0) %
Any TEAEs by maximum severity: Moderate, n subjects [1]: 0
Any TEAEs by maximum severity: Severe, % of subjects [1]: (0.0) %
Any TEAEs by maximum severity: Severe, n subjects [1]: 0
Any TEAEs leading to death, % of subjects [1]: (0.0) %
Any TEAEs leading to death, n subjects [1]: 0
Any TEAEs leading to discontinuation, % of subjects [1]: (0.0) %
Any TEAEs leading to discontinuation, n subjects [1]: 0
Any TEAEs, % of subjects [1]: 11.1%
Any TEAEs, e (number of events) [1]: 1
Any TEAEs, n subjects [1]: 1
Any serious TEAEs, % of subjects [1]: (0.0) %
Any serious TEAEs, n subjects [1]: 0
Any study drug-related TEAEs by maximum severity: Mild, % of subjects [1]: (11.1) %
Any study drug-related TEAEs by maximum severity: Mild, n subjects [1]: 1
Any study drug-related TEAEs by maximum severity: Moderate, % of subjects [1]: (0.0) %
Any study drug-related TEAEs by maximum severity: Moderate, n subjects [1]: 0
Any study drug-related TEAEs by maximum severity: Severe, % of subjects [1]: (0.0) %
Any study drug-related TEAEs by maximum severity: Severe, n subjects [1]: 0
Any study drug-related TEAEs leading to discontinuation, % of subjects [1]: (0.0) %
Any study drug-related TEAEs leading to discontinuation, n subjects [1]: 0
Any study drug-related TEAEs, % of subjects [1]: (11.1) %
Any study drug-related TEAEs, n subjects [1]: 1
Any study drug-related serious TEAEs, % of subjects [1]: (0.0) %
Any study drug-related serious TEAEs, n subjects [1]: 0
subjects who experienced a TEAE (5 mg BID, Safety Population): 1 (11.1%) subjects (%)
TEAE diarrhoea (10 mg BID): 3 (10.0%) subjects (%)
TEAE electrocardiogram QT prolonged (10 mg BID): 1 (3.3%) subjects (%)
TEAE hypoglycaemia (10 mg BID): 1 (3.3%) subjects (%)
TEAEs reported (10 mg BID): 11 TEAEs
other TEAEs, each: nausea, vomiting, blood creatine phosphokinase increased, decreased appetite, palpitations, tinnitus (10 mg BID): 1 subject each
other study drug-related TEAEs, each: nausea, blood creatine phosphokinase increased, palpitations, tinnitus (10 mg BID): 1 subject each
study drug-related TEAE diarrhoea (10 mg BID): 2 (6.7%) subjects (%)
study drug-related TEAEs reported (10 mg BID): 6 TEAEs
subjects with study drug-related TEAEs (10 mg BID): 4 (13.3%) subjects (%)
Study drug-related TEAE Abdominal pain lower, % (10 mg BID (N = 30)): (0.0) %
Study drug-related TEAE Blood creatine phosphokinase increased, % (10 mg BID (N = 30)): (3.3) %
Study drug-related TEAE Cardiac disorders, % (10 mg BID (N = 30)): (3.3) %
Study drug-related TEAE Diarrhoea, % (10 mg BID (N = 30)): (6.7) %
Study drug-related TEAE Ear and labyrinth disorders, % (10 mg BID (N = 30)): (3.3) %
Study drug-related TEAE Electrocardiogram QT prolonged, % (10 mg BID (N = 30)): (0.0) %
Study drug-related TEAE Gastrointestinal disorders, % (10 mg BID (N = 30)): (10.0) %
Study drug-related TEAE Headache, % (10 mg BID (N = 30)): (0.0) %
Study drug-related TEAE Investigations, % (10 mg BID (N = 30)): (3.3) %
Study drug-related TEAE Nausea, % (10 mg BID (N = 30)): (3.3) %
Study drug-related TEAE Nervous system disorders, % (10 mg BID (N = 30)): (0.0) %
Study drug-related TEAE Palpitations, % (10 mg BID (N = 30)): (3.3) %
Study drug-related TEAE Tinnitus, % (10 mg BID (N = 30)): (3.3) %
Subjects with any TEAEs, % (10 mg BID (N = 30)): 20.0%
Subjects with any TEAEs, e (events) (10 mg BID (N = 30)): 11
Subjects with any study drug-related TEAE, % (10 mg BID (N = 30)): 13.3%
Subjects with any study drug-related TEAE, e (events) (10 mg BID (N = 30)): 6
TEAE Abdominal pain lower, % (10 mg BID (N = 30)): (0.0) %
TEAE Arthralgia, % (10 mg BID (N = 30)): (0.0) %
TEAE Back pain, % (10 mg BID (N = 30)): (0.0) %
TEAE Blood creatine phosphokinase increased, % (10 mg BID (N = 30)): (3.3) %
TEAE Cardiac disorders, % (10 mg BID (N = 30)): (3.3) %
TEAE Constipation, % (10 mg BID (N = 30)): (0.0) %
TEAE Decreased appetite, % (10 mg BID (N = 30)): (3.3) %
TEAE Diarrhoea, % (10 mg BID (N = 30)): (10.0) %
TEAE Dyspepsia, % (10 mg BID (N = 30)): (0.0) %
TEAE Ear and labyrinth disorders, % (10 mg BID (N = 30)): (3.3) %
TEAE Electrocardiogram QT prolonged, % (10 mg BID (N = 30)): (3.3) %
TEAE Gastrointestinal disorders, % (10 mg BID (N = 30)): (13.3) %
TEAE Headache, % (10 mg BID (N = 30)): (0.0) %
TEAE Hypoglycaemia, % (10 mg BID (N = 30)): (3.3) %
TEAE Infections and infestations, % (10 mg BID (N = 30)): (0.0) %
TEAE Investigations, % (10 mg BID (N = 30)): (6.7) %
TEAE Metabolism and nutrition disorders, % (10 mg BID (N = 30)): (6.7) %
TEAE Musculoskeletal and connective tissue disorders, % (10 mg BID (N = 30)): (0.0) %
